According to the supplement of paper PMC10307832:

What was measured:
Experiment in all cases: relative viability (nuclei count vs DMSO), 5 days (fraction); higher = more cells survive
[1] = compound: C#Cc1cccc(Nc2ncnc3cc(OC)c(OCCCCCCC(=O)NO)cc23)c1 [CUDC-101] + CC1(C)CCC(c2ccc(Cl)cc2)=C(CN2CCN(c3ccc(C(=O)NS(=O)(=O)c4ccc(N[C@H](CCN5CCOCC5)CSc5ccccc5)c(S(=O)(=O)C(F)(F)F)c4)cc3)CC2)C1 [Navitoclax] (partner 0.5 µM)
Outline: (§1)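 Lung cancer cell lines were pin-tool dosed in 1536-well plates on the day after seeding, with either a lone drug or a fixed anchor-drug dose plus five library-drug doses (not always all listed) in √10 steps. Nuclei were counted on 4× images after 5 days. Relative viability is the ratio of treated-well to vehicle-well nuclei counts, with each value a median of duplicate plates.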

[2] = compound: COc1cc(N2CCC(N3CCN(C)CC3)CC2)ccc1Nc1ncc(Cl)c(Nc2ccccc2S(=O)(=O)C(C)C)n1 [NVP-TAE684] + Cc1nc(Nc2ncc(C(=O)Nc3c(C)cccc3Cl)s2)cc(N2CCN(CCO)CC2)n1 [Dasatinib] (partner 0.075 µM)
Outline: as §1

[3] = compound: C1=CC=C2C(=C1)N=C(S2)C(C#N)C3=NC(=NC=C3)NCCC4=CN=CC=C4 + CC(=O)c1c(C)c2cnc(Nc3ccc(N4CCNCC4)cn3)nc2n(C2CCCC2)c1=O [Palbociclib] (partner 0.5 µM)
Outline: as §1

[4] = compound: C1=CC=C2C(=C1)N=C(S2)C(C#N)C3=NC(=NC=C3)NCCC4=CN=CC=C4 + C[C@]1(O)C[C@@H](c2nc(-c3ccc4ccc(-c5ccccc5)nc4c3)c3c(N)nccn32)C1 [Linsitinib] (partner 1 µM)
Outline: as §1

Row | Cell Line | relative viability ([1]; first compound 0.01 µM) | relative viability ([1]; first compound 0.03162 µM) | relative viability ([1]; first compound 0.1 µM) | relative viability ([1]; first compound 0.3162 µM) | relative viability ([1]; first compound 1 µM) | relative viability ([2]; first compound 0.2 µM) | relative viability ([2]; first compound 0.6325 µM) | relative viability ([2]; first compound 2 µM) | relative viability ([3]; first compound 0.005 µM) | relative viability ([3]; first compound 0.01581 µM) | relative viability ([3]; first compound 0.05 µM) | relative viability ([3]; first compound 0.1581 µM) | relative viability ([3]; first compound 0.5 µM) | relative viability ([4]; first compound 0.005 µM) | relative viability ([4]; first compound 0.01581 µM) | relative viability ([4]; first compound 0.05 µM) | relative viability ([4]; first compound 0.1581 µM) | relative viability ([4]; first compound 0.5 µM)
1 | CAL-12T | 1.22 | 1.23 | 1.28 | 1.35 | 1.33 | 0.227 | 0.111 | 0.0731 | 0.422 | 0.327 | 0.429 | 0.673 | 0.41 | 0.76 | 0.781 | 0.671 | 0.991 | 0.839
2 | COR-L23 | 1.08 | 1.07 | 0.907 | 1.09 | 0.444 | 0.366 | 0.301 | 0.117 | 0.236 | 0.312 | 0.229 | 0.281 | 0.24 | 0.483 | 1.14 | 1.01 | 1.06 | 0.682
3 | COR-L 105 | 0.866 | 0.755 | 0.739 | 0.64 | 0.264 | 0.256 | 0.202 | 0.204 | 0.376 | 0.408 | 0.435 | 0.39 | 0.345 | 0.956 | 1.04 | 1.11 | 1.11 | 0.992
4 | EKVX | 0.972 | 0.977 | 0.874 | 0.941 | 0.593 | 0.367 | 0.469 | 0.202 | 0.294 | 0.367 | 0.41 | 0.531 | 0.285 | 0.83 | 1.17 | 1.06 | 1.02 | 0.829
5 | EMC-BAC-2 | 1.15 | 1.19 | 1.19 | 1.1 | 0.923 | 0.291 | 0.292 | 0.199 | 0.461 | 0.533 | 0.487 | 0.555 | 0.486 | 0.568 | 0.877 | 0.785 | 0.925 | 0.728
6 | EPLC-272H | 1.42 | 1.2 | 1.15 | 0.871 | 0.59 | 0.181 | 0.186 | 0.0612 | 0.358 | 0.32 | 0.317 | 0.284 | 0.304 | 1.01 | 1.3 | 1.12 | 1.27 | 1.12
7 | H3255 | 0.688 | 0.435 | 0.174 | 0.126 | 0.0597 | 0.318 | 0.274 | 0.23 | 0.367 | 0.309 | 0.303 | 0.327 | 0.305 | 0.89 | 1.01 | 0.908 | 1.05 | 1.04
8 | HARA | 1.13 | 1.16 | 1.09 | 1.14 | 0.837 | 0.24 | 0.172 | 0.141 | 0.298 | 0.235 | 0.229 | 0.257 | 0.365 | 0.731 | 0.937 | 0.934 | 1.12 | 0.788
9 | HCC-15 | 0.689 | 0.69 | 0.762 | 0.678 | 0.566 | 0.542 | 0.435 | 0.28 | 0.701 | 0.771 | 0.734 | 0.74 | 0.627 | 0.842 | 0.911 | 0.926 | 0.888 | 0.882
10 | HCC-78 | 0.76 | 0.706 | 0.846 | 0.684 | 0.391 | 0.298 | 0.24 | 0.306 | 0.333 | 0.431 | 0.506 | 0.485 | 0.478 | 0.492 | 0.423 | 0.33 | 0.582 | 0.549
11 | HCC-366 | 1.1 | 0.875 | 1.06 | 1.08 | 0.844 | 0.827 | 0.508 | 0.233 | 0.302 | 0.44 | 0.364 | 0.375 | 0.282 | 0.56 | 0.709 | 0.693 | 0.834 | 0.558
12 | HCC-827 | 1.1 | 0.66 | 0.271 | 0.184 | 0.167 | 0.262 | 0.241 | 0.124 | 0.415 | 0.597 | 0.432 | 0.492 | 0.512 | 0.988 | 0.987 | 0.961 | 1.03 | 0.931
13 | HOP-62 | 1.17 | 0.954 | 1.02 | 1.02 | 1.01 | 0.444 | 0.509 | 0.201 | 0.412 | 0.571 | 0.432 | 0.471 | 0.474 | 1.13 | 1.19 | 0.919 | 1.21 | 0.932
14 | LC-2-ad | 0.462 | 0.475 | 0.49 | 0.517 | 0.196 | 0.293 |  | 0.228 | 0.365 | 0.526 | 0.473 | 0.509 | 0.399 | 0.886 | 0.85 | 0.844 | 0.878 | 0.82
15 | LCLC-97TM1 | 0.416 | 0.304 | 0.593 | 0.377 | 0.306 | 0.894 | 0.792 | 0.275 | 0.236 | 0.265 | 0.235 | 0.251 | 0.19 | 0.218 | 0.186 | 0.175 | 0.191 | 0.225
16 | LK-2 | 0.927 | 0.826 | 0.819 | 0.741 | 0.415 | 0.236 | 0.243 | 0.185 | 0.619 | 0.914 | 0.555 | 0.801 | 0.715 | 0.409 | 0.736 | 0.621 | 0.689 | 0.555
17 | LOU-NH91 | 0.773 | 0.505 | 0.473 | 0.466 | 0.251 | 0.544 | 0.453 | 0.231 | 0.545 | 0.552 | 0.477 | 0.563 | 0.543 | 0.919 | 0.931 | 0.834 | 0.973 | 0.935
